In US12661309B2, “Preparation and efficacy of tooth whitening tablet including SHMP” (The Hershey Company, priority 2018, dated 2026):

How the values were obtained:
[1] = Stain removal (ΔE whitening index) on pre-stained bovine enamel slabs
Description: Commercially available bovine enamel slabs were purchased from Theremetrics Inc. The slabs were prepared by immersing the enamel specimens in a staining broth containing coffee, tea and gastric mucin and air-drying the specimens. The gastric mucin (glycoprotein) was added to the straining broth to afford pellicle formation on the enamel surface. This mimics the dental pellicle formed by the glycoproteins present in the saliva. The broth immersion and air-drying procedure was repeated several times up to four days to afford a heavily-stained film containing the pellicle, as shown in FIG. 2.
Six treatments were performed with 3 bovine enamel slabs per treatment (2 medium stained and 1 heavy stained). The following treatment regimen was followed. The pre-stained enamel slabs were suspended in aqueous medium using a thin rod in a plastic container. […]
After the treatment, the solution was emptied and the slab was rinsed with DI water and wiped with paper towel. […] The whiteness index was measured using Xrite spectrophotometer (L*a b) at the end of 28 and 56 cycles or treatments. […]
The term ΔE, known as the whitening index value, represents the change in color difference from baseline measurements. The L* a* b* values were measured by Xrite spectrophotometer which was calibrated every time prior use. […] Using the L* a* b* values, ΔE was calculated according to the formula as shown below. […]
The three phosphate buffer solutions (pH 5.8, 7.0, 8.0) were prepared using 0.2M NaH2PO4 and 0.2M Na2HPO4. […] The L* a* b* measurements were measured by Xrite spectrophotometer and digital images were taken at baseline, 28 cycles and at end of 56 cycles.
Artificial saliva was used as the medium for this example. […] The L* a* b* measurements were measured by Xrite spectrophotometer and digital images were taken at baseline, after 28 cycles and after 56 cycles.
Artificial saliva was used as the medium for Example 4. […] The L* a* b* measurements were measured by Xrite spectrophotometer and digital images were taken at baseline, after 28 treatment cycles and after 56 treatment cycles.

[2] = hydrolyze to form orthophosphates; cited from earlier work

Structure (SMILES) | stain removal, ingredient only vs tableted forms (Codes H, L & D) ([1]; Example 1, specifically heavy stains) | relationship between SHMP concentration and stain removal efficacy ΔE values ([1]; Example 3, 0-8% SHMP tablets, medium stained slabs, artificial saliva) | reduction of whitening efficacy ([1]; Example 3, dropping SHMP level in tablet from 8% to 5%, artificial saliva) | stability in acidic environments [2]
O=P1([O-])OP(=O)([O-])OP(=O)([O-])OP(=O)([O-])OP(=O)([O-])OP(=O)([O-])O1.[Na+].[Na+].[Na+].[Na+].[Na+].[Na+] [Code B, sodium hexametaphosphate] | performed better than tableted forms | – | – | –
O=P1([O-])OP(=O)([O-])OP(=O)([O-])OP(=O)([O-])OP(=O)([O-])OP(=O)([O-])O1.[Na+].[Na+].[Na+].[Na+].[Na+].[Na+] [SHMP, sodium hexametaphosphate] | – | linear relationship | 32% | not stable
